Results reported in patent US20250205192A1, “METHODS AND MATERIALS FOR TREATING PANCREATIC DISEASES AND DISORDERS” (MAYO FOUNDATION FOR MEDICAL EDUCATION AND RESEARCH, priority 2022, published 2025).
Entries after “also recorded” stand apart in the source; their conditions may differ.

Test system: male CD-1 mice
Assay: Intraperitoneal GTL injection in mice, peritoneal cavity assessed for nodules, adhesions and fibrosis after 1 week
Assay type: in vivo
Description: 25% glyceryl trilinoleate (GTL) homogenous suspension in saline was prepared by heating, mixing, and sonication.
Agent 767 was dissolved in a 25% sonicated suspension of GTL in saline. This was prepared by adding […] of the 25% GTL suspension to 10 mg of 767 at room temperature. The solution was then mixed, heated gently to 37-40° C., and sonicated to ensure homogeneous emulsion.
Each experiment used 4 male CD-1 mice (35-39 grams).
Two mice were each given 0.2 mL of 25% GTL by intraperitoneal injection.
Two mice were given 0.2 mL of 767 in 25% GTL by intraperitoneal injection.
Mice were sacrificed after 1 week, and the peritoneal cavity was assessed for nodules.

| SMILES | adherence of duodenum, pancreas and spleen after GTL alone (en bloc excised organs from mice given GTL intraperitoneally) | peritoneal appearance (nodules and strands) after GTL alone (mice given 0.2 mL of 25% GTL by intraperitoneal injection, 1 week, compared with control mice) | pancreatitis abnormalities by blood urea nitrogen (BUN), glucose or albumin levels after GTL alone (mice given GTL intraperitoneally) | fibrosis of the wall of the nodules (Sirius red stain) after GTL alone (nodules from mice given GTL intraperitoneally) | nodules in the peritoneal cavity and in the vicinity of the pancreas (mice given 0.2 mL of 767 in 25% GTL by intraperitoneal injection, sacrificed after 1 week, compared with GTL only) | adhesions in the peritoneal cavity in spaces away from the pancreas (mice given 767 in 25% GTL intraperitoneally, 1 week) |
| --- | --- | --- | --- | --- | --- | --- |
| CCCCC/C=C\C/C=C\CCCCCCCC(=O)OCC(COC(=O)CCCCCCC/C=C\C/C=C\CCCCC)OC(=O)CCCCCCC/C=C\C/C=C\CCCCC [GTL, glyceryl trilinoleate] | adherent and difficult to separate | had nodules and strands; also recorded: had clearly discernable nodules | did not exhibit pancreatitis abnormalities | strongly positive for fibrosis | – | – |
| CCCCCCCCCCC[C@@H](C[C@@H]1OC(=O)[C@H]1CC)OC(=O)[C@H](C)NC=O [compound 767] | – | – | – | – | did not have noticeable nodules | prevented adhesions |
